Measured values published in ChEMBL document CHEMBL3046265, “Synthesis, evaluation of antimicrobial activity, and molecular modeling of novel 2-((4-(2H-benzo[d] [1,2,3] triazol-2-yl)piperidin-1-yl)methyl)-5-substituted phenyl-1,3,4-oxadiazoles” (2013).

What was measured:
Assay type in all cases: functional
Conditions in all cases: read-out: IZ
Proteus vulgaris [1] = assay: Antibacterial activity against Proteus vulgaris at 900 ug/ml after overnight incubation
Escherichia coli [2] = assay: Antibacterial activity against Escherichia coli at 600 ug/ml after overnight incubation
Escherichia coli [3] = assay: Antibacterial activity against Escherichia coli at 900 ug/ml after overnight incubation
Proteus vulgaris [4] = assay: Antibacterial activity against Proteus vulgaris at 600 ug/ml after overnight incubation
Colletotrichum falcatum [5] = assay: Antifungal activity against Glomerella tucumanensis at 300 ug/ml after 48 hr
Fusarium oxysporum [6] = assay: Antifungal activity against Fusarium oxysporum at 1200 ug/ml after 48 hr
Fusarium oxysporum [7] = assay: Antifungal activity against Fusarium oxysporum at 900 ug/ml after 48 hr
Fusarium oxysporum [8] = assay: Antifungal activity against Fusarium oxysporum at 600 ug/ml after 48 hr
Fusarium oxysporum [9] = assay: Antifungal activity against Fusarium oxysporum at 300 ug/ml after 48 hr
Candida albicans [10] = assay: Antifungal activity against Candida albicans at 1200 ug/ml after 48 hr
Candida albicans [11] = assay: Antifungal activity against Candida albicans at 900 ug/ml after 48 hr
Candida albicans [12] = assay: Antifungal activity against Candida albicans at 600 ug/ml after 48 hr
Candida albicans [13] = assay: Antifungal activity against Candida albicans at 300 ug/ml after 48 hr
Streptococcus pyogenes [14] = assay: Antibacterial activity against Streptococcus pyogenes at 900 ug/ml after overnight incubation
Streptococcus pyogenes [15] = assay: Antibacterial activity against Streptococcus pyogenes at 600 ug/ml after overnight incubation
Staphylococcus aureus [16] = assay: Antibacterial activity against Staphylococcus aureus at 900 ug/ml after overnight incubation
Staphylococcus aureus [17] = assay: Antibacterial activity against Staphylococcus aureus at 600 ug/ml after overnight incubation
Bacillus pumilus [18] = assay: Antibacterial activity against Bacillus pumilus at 900 ug/ml after overnight incubation
Bacillus pumilus [19] = assay: Antibacterial activity against Bacillus pumilus at 600 ug/ml after overnight incubation
Priestia megaterium [20] = assay: Antibacterial activity against Bacillus megaterium at 900 ug/ml after overnight incubation
Priestia megaterium [21] = assay: Antibacterial activity against Bacillus megaterium at 600 ug/ml after overnight incubation
Bacillus subtilis [22] = assay: Antibacterial activity against Bacillus subtilis at 900 ug/ml after overnight incubation
Bacillus subtilis [23] = assay: Antibacterial activity against Bacillus subtilis at 600 ug/ml after overnight incubation
Klebsiella aerogenes [24] = assay: Antibacterial activity against Enterobacter aerogenes at 900 ug/ml after overnight incubation
Klebsiella aerogenes [25] = assay: Antibacterial activity against Enterobacter aerogenes at 600 ug/ml after overnight incubation
Klebsiella pneumoniae [26] = assay: Antibacterial activity against Klebsiella pneumoniae at 900 ug/ml after overnight incubation
Klebsiella pneumoniae [27] = assay: Antibacterial activity against Klebsiella pneumoniae at 600 ug/ml after overnight incubation
Enterococcus faecalis [28] = assay: Antibacterial activity against Enterococcus faecalis at 900 ug/ml after overnight incubation
Enterococcus faecalis [29] = assay: Antibacterial activity against Enterococcus faecalis at 600 ug/ml after overnight incubation
Exserohilum rostratum [30] = assay: Antifungal activity against Setosphaeria rostrata at 1200 ug/ml after 48 hr
Exserohilum rostratum [31] = assay: Antifungal activity against Setosphaeria rostrata at 900 ug/ml after 48 hr
Exserohilum rostratum [32] = assay: Antifungal activity against Setosphaeria rostrata at 600 ug/ml after 48 hr
Exserohilum rostratum [33] = assay: Antifungal activity against Setosphaeria rostrata at 300 ug/ml after 48 hr
Colletotrichum falcatum [34] = assay: Antifungal activity against Glomerella tucumanensis at 1200 ug/ml after 48 hr
Colletotrichum falcatum [35] = assay: Antifungal activity against Glomerella tucumanensis at 900 ug/ml after 48 hr
Colletotrichum falcatum [36] = assay: Antifungal activity against Glomerella tucumanensis at 600 ug/ml after 48 hr

## CC(C)(C)c1cc(-c2nnc(CN3CCC(n4nc5ccccc5n4)CC3)o2)cc(C(C)(C)C)c1
Proteus vulgaris [1]
  zone of inhibition at 900 µg/mL: 9.45 mm
Escherichia coli [2]
  zone of inhibition at 600 µg/mL: 3.25 mm
Escherichia coli [3]
  zone of inhibition at 900 µg/mL: 6.8 mm
Proteus vulgaris [4]
  zone of inhibition at 600 µg/mL: 4.95 mm
Colletotrichum falcatum [5]
  zone of inhibition at 300 µg/mL: 3.98 mm
Fusarium oxysporum [6]
  zone of inhibition at 1200 µg/mL: 33.8 mm
Fusarium oxysporum [7]
  zone of inhibition at 900 µg/mL: 17.9 mm
Fusarium oxysporum [8]
  zone of inhibition at 600 µg/mL: 9.25 mm
Fusarium oxysporum [9]
  zone of inhibition at 300 µg/mL: 4.5 mm
Candida albicans [10]
  zone of inhibition at 1200 µg/mL: 29.9 mm
Candida albicans [11]
  zone of inhibition at 900 µg/mL: 15 mm
Candida albicans [12]
  zone of inhibition at 600 µg/mL: 7.08 mm
Candida albicans [13]
  zone of inhibition at 300 µg/mL: 3.97 mm
Streptococcus pyogenes [14]
  zone of inhibition at 900 µg/mL: 8.95 mm
Streptococcus pyogenes [15]
  zone of inhibition at 600 µg/mL: 3.95 mm
Staphylococcus aureus [16]
  zone of inhibition at 900 µg/mL: 9.05 mm
Staphylococcus aureus [17]
  zone of inhibition at 600 µg/mL: 4.3 mm
Bacillus pumilus [18]
  zone of inhibition at 900 µg/mL: 9.95 mm
Bacillus pumilus [19]
  zone of inhibition at 600 µg/mL: 4.56 mm
Priestia megaterium [20]
  zone of inhibition at 900 µg/mL: 8.21 mm
Priestia megaterium [21]
  zone of inhibition at 600 µg/mL: 3.95 mm
Bacillus subtilis [22]
  zone of inhibition at 900 µg/mL: 11.2 mm
Bacillus subtilis [23]
  zone of inhibition at 600 µg/mL: 5.05 mm
Klebsiella aerogenes [24]
  zone of inhibition at 900 µg/mL: 7.25 mm
Klebsiella aerogenes [25]
  zone of inhibition at 600 µg/mL: 3.5 mm
Klebsiella pneumoniae [26]
  zone of inhibition at 900 µg/mL: 7.85 mm
Klebsiella pneumoniae [27]
  zone of inhibition at 600 µg/mL: 3.85 mm
Enterococcus faecalis [28]
  zone of inhibition at 900 µg/mL: 11.6 mm
Enterococcus faecalis [29]
  zone of inhibition at 600 µg/mL: 5.85 mm
Exserohilum rostratum [30]
  zone of inhibition at 1200 µg/mL: 29.8 mm
Exserohilum rostratum [31]
  zone of inhibition at 900 µg/mL: 15.9 mm
Exserohilum rostratum [32]
  zone of inhibition at 600 µg/mL: 8.25 mm
Exserohilum rostratum [33]
  zone of inhibition at 300 µg/mL: 4.54 mm
Colletotrichum falcatum [34]
  zone of inhibition at 1200 µg/mL: 32 mm
Colletotrichum falcatum [35]
  zone of inhibition at 900 µg/mL: 15.8 mm
Colletotrichum falcatum [36]
  zone of inhibition at 600 µg/mL: 8.32 mm
